Reference: patent US7101908B2, “Bicyclic carbohydrate compounds useful in the treatment of infections caused by herpesviridae” (Kemin Pharma Europe B.V.B.A., priority 2001, dated 2006)
In brackets after ≈: the same amount, converted by molar mass.

Assays:
[1] = tested on: CMV Davis strain; test: Plaque reduction assay in HEL cells, CMV Davis strain; assay type: cell-based, human cytomegalovirus; conditions: human embryonic lung fibroblast (HEL) cells; for IC50: Human betaherpesvirus 5, HEL, 168 h, plaques counted on day 7, read-out: IC50 CMV David Strain (inhibitory concentration required to reduce virus plaque formation by 50%)
Procedure: (§1) The compounds were screened against various pathogenic viruses and more specific the human cytomegalovirus (CMV). […] After 2 hours of incubation at 37° C., the infected cells were replenished with 0.1 ml of medium containing serial dilutions of the test compound. On day 7 the plaques were counted microscopically after staining the cells with Giemsa's solution. The minimum antiviral concentration was expressed as the dose required to inhibit virus-induced plaque formation by 50%.

[2] = tested on: CMV AD-169 strain; test: Plaque reduction assay in HEL cells, CMV AD-169 strain; assay type: cell-based, human cytomegalovirus; conditions: human embryonic lung fibroblast (HEL) cells; for IC50: Human betaherpesvirus 5, AD169, HEL, 168 h, plaques counted on day 7, read-out: IC50 CMV AD-169 Strain (inhibitory concentration required to reduce virus plaque formation by 50%); for IC50 CMV AD-169 Strain (inhibitory concentration required to reduce virus plaque formation by 50%): plaques counted on day 7
Procedure: as §1

[3] = intravenous ganciclovir; people; cited from earlier work

SMILES	IC50 [1] [µg/mL]	IC50 [2] [µg/mL]	melting point [°C]	IV recipients who have to stop treatment because of side effects [3]	IC50 CMV AD-169 Strain (inhibitory concentration required to reduce virus plaque formation by 50%) [2] [µg/mL]	IC50 CMV David Strain (inhibitory concentration required to reduce virus plaque formation by 50%) ([1]; plaques counted on day 7) [µg/mL]
CO[C@@H]1[C@@H](OC)[C@H](c2ccccc2)O[C@@H]2CO[C@@H](c3ccc(-c4ccccc4)cc3)O[C@@H]12 [Compound A7]	0.6 (≈ 1.39 µM)	0.8 (≈ 1.85 µM)	111 to 112	–	–	–
Nc1nc(O)c2ncn(COC(CO)CO)c2n1 [Ganciclovir, reference compound]	0.5 (≈ 1.96 µM)	1.3 (≈ 5.09 µM)	–	More than 10%	2.5 (≈ 9.79 µM)	–
C#CCO[C@@H]1[C@@H](OCC#C)[C@H](Cc2ccccc2)O[C@@H]2CO[C@@H](c3ccccc3)O[C@@H]12 [Compound A5]	0.5 (≈ 1.19 µM)	0.5 (≈ 1.19 µM)	81 to 83	–	–	–
CO[C@@H]1[C@@H](OC)[C@H](Cc2ccccc2)O[C@@H]2CO[C@@H](c3ccccc3)O[C@@H]12 [Compound A2]	20 (≈ 54 µM)	5 (≈ 13.5 µM)	–	–	–	–
CO[C@@H]1[C@@H](OC)[C@H](c2ccccc2)O[C@@H]2CO[C@@H](c3ccccc3)O[C@@H]12 [Compound A1]	2 (≈ 5.61 µM)	2.7 (≈ 7.58 µM)	97 to 98	–	–	–
CCO[C@@H]1[C@@H](OCC)[C@H](Cc2ccccc2)O[C@@H]2CO[C@@H](c3ccccc3)O[C@@H]12 [Compound A3]	3.2 (≈ 8.03 µM)	2.5 (≈ 6.27 µM)	87 to 89	–	2.7 (≈ 6.78 µM)	2.8 (≈ 7.03 µM)
CO[C@@H]1[C@@H](OC)[C@H](c2ccccc2)O[C@@H]2CO[C@@H](c3ccc4ccccc4c3)O[C@@H]12 [Compound A6]	0.8 (≈ 1.97 µM)	0.47 (≈ 1.16 µM)	135	–	–	–
